From patent publication US20080318789A1, “Seed germination acceleration” (priority 2007, published 2008)

Tested on: canola (cv. Westar) seed
Assay: Petri plate germination study of treated canola seed at 6° C.
Assay type: in vivo
Conditions: petri plates at 6° C., n = 3 plates of 15 seeds; for Percent germinated Day 5: day 5 after treatment; for Percent germinated Day 6: day 6 after treatment; for Percent germinated Day 7: day 7 after treatment
Procedure: For all seed treatments, 1 ppm active ingredient refers to 1 microgram active ingredient per gram of seed. For these studies, GA3, GA4/7, 6BA or CPPU were each dispensed into a 15 ml centrifuge tube, and 2.5 ml of de-ionized water was then added to each tube. The solution was mixed on a vortex mixer and 0.015 ml of this solution was then placed in another 15 ml. centrifuge tube along with 0.6 grams of canola seeds (cv. Westar). Seeds were mixed by rotating 360° on a Labquake Rotisserie for 30 minutes. To simulate commercial seed treatments, the amount of solutions was just sufficient to wet the seeds. After treating, the seeds were placed in weigh boats for overnight drying. Petri plate studies: Each standard petri plate (100 mm×50 mm) contained 1 blue Anchor germination circle (3¼ inches in diameter) drenched with 8 ml of de-ionized water cooled to 6° C., Each treatment consisted of 3 petri plates of 15 seeds each. After plating, the petri plates were placed in a Nalgene plastic container pre-cooled to 6° C. The plastic container containing the petri plates was placed in a growth chamber at 6° C. with a 16-hour light cycle for the duration of the study. Seeds were visually observed daily for germination as determined by emergence of root from the seed coat. Canola seeds (cv. Westar) were treated with solutions containing GA4/7, GA3, 6BA, or CPPU. The solutions were sufficient only to wet the seeds. The amount of applied GA4/7 ([…]), GA3 (0.5, 5 or 50 ppm), 6BA (5 or 50 ppm), or CPPU (5 or 50 ppm) is expressed as ppm or micrograms of compound per gram of seed.

Row | Structure (SMILES) | Percent germinated Day 5 (seed treatment 5 ppm) | Percent germinated Day 6 (seed treatment 5 ppm) | Percent germinated Day 7 (seed treatment 5 ppm) | Percent germinated Day 5 (seed treatment 50 ppm) | Percent germinated Day 6 (seed treatment 50 ppm) | Percent germinated Day 7 (seed treatment 50 ppm) | Percent germinated Day 5 (seed treatment 0.5 ppm) | Percent germinated Day 6 (seed treatment 0.5 ppm) | Percent germinated Day 7 (seed treatment 0.5 ppm)
1 | c1ccc(CNc2ncnc3nc[nH]c23)cc1 [6BA] | 0% | 0% | 0% | 0% | 0.3% | 0.3% |  |  | 
2 | O=C(Nc1ccccc1)Nc1ccnc(Cl)c1 [CPPU, 1-(2-chloro-4-pyridyl)-3-phenylurea] | 0% | 0% | 0.3% | 0% | 0% | 0% |  |  | 
3 | C=C1C[C@]23C[C@@]1(O)CC[C@H]2[C@@]12C=C[C@H](O)[C@@](C)(C(=O)O1)[C@H]2[C@@H]3C(=O)O [GA3, (1α,2β,4aα,4bβ,10β)-2,4-a,7-trihydroxy-1-methyl-8-methylenegibb-3-ene-1,10-dicarboxylic acid 1,4a-lactone] | 0% | 0.3% | 0.7% | 0.3% | 2.7% | 5.0% | 0% | 0.3% | 0.3%
